This note sets out measurements from patent publication US20260071220A1, “CONJUGATE OF NUCLEOTIDE ANALOG-CONTAINING DOUBLE-STRANDED RNAI ANALOG” (BaseCure Therapeutics LLC, priority 2022, published 2026).

This data set relates to AGT mRNA. Kind of data set: Compound activity experiment in Huh7 cell line (transfection, AGT mRNA by qPCR). The data set is classed as cell-based, human. The conditions noted are these: Huh7, RNAiMAX transfection, 24 h. How it is done:
1. Objective: this study aims to evaluate the inhibitory effect of the conjugate described in this patent on a target gene using a Huh7 cell line. The inhibitory activity of the compound on target gene AGT is evaluated based on the EC50 value of the compound as an index.
Huh7 cells were provided by Shanghai WuXi AppTec New Drug Development Co., Ltd. Hub7 cells were cultured in MEM medium containing 10% fetal bovine serum and 1% penicillin streptomycin.
1) On Day 1, a mixed solution of an RNAiMAX transfection reagent and Opti-MEM was prepared as needed in a ratio of RNAiMAX transfection reagent:Opti-MEM=1.5:48.5, and incubated for 15 min at room temperature;
2) For cells in each well, a certain amount of diluted compound was taken and added into an equal amount of RNAiMAX Optim-MEM medium to be mixed well, and then incubated for 15 min;
3) Huh7 cells were taken and washed with DPBS, digested with trypsin, and the density of the cells was adjusted to an appropriate density;
4) The cells were seeded into a 96-well plate at a density of 2,0000 cells/well while adding a mixture of 20 μL Opti-MEM RNAiMax and the compound into the cell culture plate, and the volume of the final medium for each well was 120 μL.
5) The cells were incubated for 24 h in an incubator under the conditions of 5% CO2 and 37° C. […]
The cDNA of the target gene was detected by qPCR. qPCR was carried out in a 384-well plate using GAPDH as an internal reference gene. […]
This method requires the introduction of the internal reference gene GAPDH, as the internal reference gene is expressed in all the cells and its product is necessary for maintaining cell survival; and the expression level or copy number of the genome in cells remains constant and is less affected by environmental factors. After qRT-PCR, the CT value of the internal reference will also be recorded, called Ct (GAPDH), and the CT value of the sample is called Ct (sample).
For orientation: Quantitative PCR measures a nucleic acid by following its amplification.

In the oligonucleotide strings, read from the 5' end, every base follows the letter of its sugar. An asterisk marks phosphorothioate; unmarked linkages are phosphodiester. Other units and linkages are bracketed, terminal groups are in braces. A string of capitals states the bases alone. {D01} = GalNAc ligand D01, attached to sense strand by a phosphodiester bond; m = 2'-O-methyl; f = 2'-fluoro

By EC50 is commonly meant the concentration needed to bring the measured effect to its halfway point. As for “Conjugate 2: Double-stranded RNAi analog against AGT, D01 GalNAc ligand on sense strand; sense SEQ ID NO: 6, antisense SEQ ID NO: 2 containing Z (sense mA*mU*fCfCmAfCfAfAmUmGmAmGmAfGmUmAmCmA-{D01}; antisense CUCACAUGUACNCUCAUUGUGGAUGACGA; antisense: chemistry not given here; antisense strand modified, includes nucleotide analog Z, further chemistry not fully specified)”, the “Emax (remaining AGT mRNA)” value is 5%. Also, the 50% effective concentration (EC50) (AGT mRNA, read-out: Absolute EC50) came out at 5.92 pM. For the same substance, the “Log (concentration)” value (log of the absolute EC50 (matches nM)) is listed as −2.228.
